From patent publication US7338959B2, “Diamino-pyrimidines and their use as angiogenesis inhibitors” (SmithKline Beecham Corporation, priority 2002, dated 2008)
Counter-ions that a name gives are not always drawn.

Tests used:
[1] = test system: Human umbilical cord endothelial cells (HUVEC); test: VEGF-driven cellular proliferation assay: BrdU incorporation assay (VEGF-C); format: cell-based; conditions: 20 ng/ml VEGF
Experimental: VEGF-Driven Cellular Proliferation Assay: BrdU Incorporation Assay (VEGF-C)
Human umbilical cord endothelial cells (HUVEC, Clonetics, CC2519) were passaged in Type I collagen-coated 100-mm petridishes in EGM-MV medium (Clonetics, CC3125) at 37 C in a humidified 5% CO2, 95% air incubator. (HUVEC passaged more than 6 times in vitro were discarded and not subjected to assaying.) The cells were harvested using trypsin/EDTA, counted using a haemocytometer and plated at 5000 cells/well in a Type I-collagen coated 96-well plate (Becton Dickinson, 354407) in M199 medium (Gibco BRL, 12340-030) containing 5% FBS (Hyclone, A 1115-L) and gentamicin (at 50 ug/ml, Gibco BRL). After incubation overnight at 37° C., the media were replaced with 100 ul of M199 serum-free medium containing compounds at various concentrations with 0.6% DMSO and gentamicin. The compounds were diluted in serum-free M199 medium from 10 mM stock solutions prepared in 100% DMSO. After a 30 min incubation at 37° C., the cells were fed with 100 ul of serum-free M199 medium containing gentamicin, 0.2% culture-grade bovine serum albumin (BSA, Sigma A1993) and 20 ng/ml of VEGF (REtD systems, 293-VE) or 0.6 ng/ml of basic FGF (REtD systems, 233-FB), and cultured at 37° C. for another 24 h. The cells were pulsed with bromodeoxyuridine (BrdU at 10 uM in serum-free M199) at 37° C. for an additional 24 h. The incorporation of BrdU into the proliferating HUVEC were analyzed using BrdU Cell Proliferation ELISA (Roche Molecular Biochemicals, 1647229) according to the manufacturer's protocols. The optical density at 450 nm was measured with a multilabel counter (ARVO SX, Wallac). The percent inhibition of cell growth was calculated relative to blank control wells. The concentration of test compound that inhibits 50% of cell growth (IC50) was interpolated using nonlinear regression (Levernberg-Marquardt) and the equation, y=Vmax (1−x/(K+x))+Y2, where “K” was equal to the IC50. The IC50 values were converted to pIC50 values, i.e., −log IC50 in Molar concentration.

GST-VEGFR2 = target: T1, GST-VEGFR2 (Homo sapiens, UniProt P35968); test: VEGF-R2 enzyme assay (VEGF-E), LANCE method; format: biochemical; conditions: GST-VEGFR2, 75 uM ATP, biotinylated peptide
T1 construct: baculovirus expressed recombinant constructs of the intracellular domains of human TIE2 tagged by GST; made in house
T1 sequence (P35968 786-1356 limits assumed): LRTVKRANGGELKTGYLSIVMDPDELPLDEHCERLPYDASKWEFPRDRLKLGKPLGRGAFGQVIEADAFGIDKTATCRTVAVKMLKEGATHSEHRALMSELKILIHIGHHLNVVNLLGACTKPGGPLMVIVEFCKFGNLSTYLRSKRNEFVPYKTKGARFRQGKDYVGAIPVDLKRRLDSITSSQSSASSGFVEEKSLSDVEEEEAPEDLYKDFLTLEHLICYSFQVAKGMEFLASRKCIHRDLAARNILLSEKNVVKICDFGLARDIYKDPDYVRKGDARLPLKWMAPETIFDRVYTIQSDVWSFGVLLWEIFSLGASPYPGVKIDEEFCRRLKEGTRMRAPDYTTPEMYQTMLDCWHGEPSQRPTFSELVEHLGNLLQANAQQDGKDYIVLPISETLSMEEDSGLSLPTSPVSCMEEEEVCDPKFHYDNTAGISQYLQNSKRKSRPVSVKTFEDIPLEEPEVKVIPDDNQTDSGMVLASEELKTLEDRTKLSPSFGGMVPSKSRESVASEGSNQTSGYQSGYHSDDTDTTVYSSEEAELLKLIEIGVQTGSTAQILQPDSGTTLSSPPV
Text: VEGF-R2 Enzyme Assay (VEGF-E)
The VEGF enzyme assay used the LANCE method (Wallac) and GST-VEGFR2, baculovirus expressed recombinant constructs of the intracellular domains of human TIE2 tagged by GST. The method measured the ability of the purified enzymes to catalyse the transfer of the γ-phosphate from ATP onto tyrosine residues in a biotinylated synthetic peptide, (biotin-aminohexyl-EEEEYFELVAKKKK-NH2). This peptide phosphorylation was detected using the following procedure: GST-VEGFR2 was incubated for 40-60 mins at room temperature with 75 uM ATP, 5 mM MgCl2, 0.1 mM DTT, 0.1 mg/mL BSA and the test compound (diluted from a 10 mM stock in DMSO for desired concentration) in 100 mM HEPES buffer. The reaction was stopped by the addition of EDTA (final concentration 50 mM). Streptavidin linked-APC (allophycocyanin, Molecular Probe) and Europium-labeled anti-phosphorylated tyrosine antibody (Wallac) were then added at the final concentration of 15 nM and 1 nM, respectively. The APC signal was measured using an ARVO multilabel counter (Wallac Berthold, Japan). The percent inhibition of activity was calculated relative to blank control wells. The concentration of test compound that inhibits 50% of activity (IC50) was interpolated using nonlinear regression (Levernberg-Marquardt) and the equation, y=Vmax (1−x/(K+x))+Y2, where “K” was equal to the IC50. The IC50 values were converted to pIC50 values, i.e., −log IC50 in Molar concentration.

Recombinant GST-Tie2 = Recombinant GST-Tie2 (Homo sapiens, UniProt Q02763); test: Tie2 fluorescence polarization kinase activity assay (TIE2-FP); format: biochemical; conditions: activated Tie2, 200 μM ATP, peptide substrate
Recombinant GST-Tie2, sequence (Q02763 23-1124): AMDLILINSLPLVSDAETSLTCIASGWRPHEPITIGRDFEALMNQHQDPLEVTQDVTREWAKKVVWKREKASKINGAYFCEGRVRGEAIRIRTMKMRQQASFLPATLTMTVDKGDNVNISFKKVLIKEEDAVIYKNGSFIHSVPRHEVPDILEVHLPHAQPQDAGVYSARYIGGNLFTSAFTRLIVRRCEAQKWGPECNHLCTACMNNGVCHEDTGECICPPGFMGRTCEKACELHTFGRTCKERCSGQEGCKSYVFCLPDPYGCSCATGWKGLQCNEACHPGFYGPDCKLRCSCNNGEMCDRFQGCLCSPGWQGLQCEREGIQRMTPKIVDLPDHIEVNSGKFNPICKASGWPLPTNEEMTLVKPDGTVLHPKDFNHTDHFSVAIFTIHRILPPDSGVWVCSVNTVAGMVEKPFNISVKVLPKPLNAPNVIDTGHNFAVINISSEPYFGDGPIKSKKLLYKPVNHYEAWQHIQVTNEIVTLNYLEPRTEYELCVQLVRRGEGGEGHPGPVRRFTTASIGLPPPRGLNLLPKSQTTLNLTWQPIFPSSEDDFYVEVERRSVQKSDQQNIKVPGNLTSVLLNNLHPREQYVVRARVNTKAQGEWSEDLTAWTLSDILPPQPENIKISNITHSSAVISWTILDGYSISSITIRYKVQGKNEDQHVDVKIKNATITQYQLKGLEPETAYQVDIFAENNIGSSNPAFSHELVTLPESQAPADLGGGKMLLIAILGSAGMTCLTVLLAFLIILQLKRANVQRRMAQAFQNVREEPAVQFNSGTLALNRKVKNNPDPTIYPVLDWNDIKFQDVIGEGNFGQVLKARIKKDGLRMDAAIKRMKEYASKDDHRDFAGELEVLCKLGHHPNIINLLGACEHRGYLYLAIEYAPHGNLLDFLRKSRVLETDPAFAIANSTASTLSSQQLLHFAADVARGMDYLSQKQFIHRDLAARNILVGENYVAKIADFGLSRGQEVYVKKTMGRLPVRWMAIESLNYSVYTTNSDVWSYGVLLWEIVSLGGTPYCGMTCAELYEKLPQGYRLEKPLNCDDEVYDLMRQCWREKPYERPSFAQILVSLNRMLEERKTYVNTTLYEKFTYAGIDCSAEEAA
Experimental: Tie2 Fluorescence Polarization Kinase Activity Assay: (TIE2-FP)
Activation of Recombinant Tie2 Activation:
Recombinant GST-Tie2 was activated by incubating the enzyme in 20 mM Tris-HCl, pH 7.5, 12 mM MgCl2, 100 mM NaCl, 20 μM sodium vanidate, 1 mM DTT and 300 μM ATP at room temperature for 2 hours. The activation mixture was then passed through a NAP-25 desalting column (Pharmacia Biotech cat. no. 17-0852-02) to remove the free ATP. The activated enzyme was stored as aliquots at −80° C. in 20 mM Tris-HCl, pH 7.5 and 100 mM NaCl.
The final assay conditions were 50 mM HEPES, pH 7.5, 5% DMSO (when screening compounds), 200 μM ATP, 5 mM MgCl2, 1 mM DTT, 50 μM sodium vanidate, 1 nM activated enzyme, and 200 μM peptide. IC50's of compounds were measured under subsaturating ATP (200 μM) and varing concentrations of activated Tie2 and peptide substrate (RFWKYEFWR-OH; MW 1873 Da, TFA salt). Panvera Anti-phosphotyrosine antibody (Cat#P2840) and PTK Green Tracer (Cat#P2842) were used to detect the phosphorylated peptide. Polarization was measured on a TECAN Polarion in 138-second cycles for 30 minutes at room temperature. IC50's were then determined from the % polarization using normal calculation methods.

| Compound | IC50 [1] [nM] | IC50 (GST-VEGFR2) [nM] | IC50 (Recombinant GST-Tie2) [nM] | TIE2-FP (Recombinant GST-Tie2) | VEGF-E (GST-VEGFR2) |
| --- | --- | --- | --- | --- | --- |
| CC(C)Nc1nc2cc(N(C)c3ccnc(Nc4ccc(CS(C)(=O)=O)cc4)n3)ccc2n1C [Example 1, N^2-isopropyl-N^5,1-dimethyl-N^5-[2-({4-[(methylsulfonyl)methyl]phenyl}amino)pyrimidin-4-yl]-1H-benzimidazole-2,5-diamine hydrochloride] | < 100 | < 100 | – | – | – |
| CC(C)Nc1nc2cc(N(C)c3ccnc(Nc4ccc(CS(N)(=O)=O)cc4)n3)ccc2n1C [Example 2, hydrochloride] | < 100 | < 100 | – | – | – |
| CNc1nc2cc(N(C)c3ccnc(Nc4ccc(CS(C)(=O)=O)cc4)n3)ccc2n1C [Example 3, hydrochloride] | < 100 | < 100 | – | – | – |
| CN(c1ccc2c(c1)nc(NCc1ccccc1)n2C)c1ccnc(Nc2ccc(CS(C)(=O)=O)cc2)n1 [Example 4, N^2-benzyl-N^5,1-dimethyl-N^5-[2-({4-[(methylsulfonyl)methyl]phenyl}amino)pyrimidin-4-yl]-1H-benzimidazole-2,5-diamine hydrochloride] | < 100 | < 100 | – | – | – |
| CN(c1ccc2c(c1)nc(Nc1ccccc1)n2C)c1ccnc(Nc2ccc(CS(C)(=O)=O)cc2)n1 [Example 5, N^5,1-Dimethyl-N^5-[2-({4-[(methylsulfonyl)methyl]phenyl}amino)pyrimidin-4-yl]-N^2-phenyl-1H-benzimidazole-2,5-diamine trifluoroacetic acid] | < 100 | < 100 | – | – | – |
| CONS(=O)(=O)c1cc(Nc2nccc(N(C)c3ccc4c(c3)nc(NCc3ccccc3)n4C)n2)ccc1C [Example 6, 5-({4-[[2-(Benzylamino)-1-methyl-1H-benzimidazol-5-yl](methyl)amino]pyrimidin-2-yl}amino)-N-methoxy-2-methylbenzenesulfonamide] | < 100 | < 100 | – | – | – |
| CN(c1ccc2c(c1)nc(NC(=O)C1(c3cc(F)ccc3F)CC1)n2C)c1ccnc(Nc2ccc(CS(C)(=O)=O)cc2)n1 [Example 204, 1-(2,5-Difluoro-phenyl)-cyclopropanecarboxylic acid ({[2-(4-methanesulfonylmethyl-phenylamino)-pyrimidin-4-yl]-methyl-amino}-methyl-1H-benzoimidazol-2-yl)-amide] | – | 100 to 1000 | 1000 to 10000 | – | – |
| CN(c1ccc2c(c1)nc(NC(=O)Cc1ccc(F)cc1)n2C)c1ccnc(Nc2ccc(CS(C)(=O)=O)cc2)n1 [Example 206, 2-(4-Fluoro-phenyl)-N-({[2-(4-methanesulfonylmethyl-phenylamino)-pyrimidin-4-yl]-methyl-amino}-methyl-1H-benzoimidazol-2-yl)-acetamide] | – | < 100 | 1000 to 10000 | – | – |
| CN(c1ccc2c(c1)nc(NC(=O)Cc1cccc(F)c1F)n2C)c1ccnc(Nc2ccc(CS(C)(=O)=O)cc2)n1 [Example 226, (2,3-Difluorophenyl)-N-({[2-(4-methanesulfonylmethyl-phenylamino)-pyrimidin-4-yl]-methyl-amino}-methyl-1H-benzoimidazol-2-yl)-acetamide] | – | < 100 | 1000 to 10000 | – | – |
| CN(c1ccc2c(c1)nc(NC(=O)C1(c3ccc(Cl)c(Cl)c3)CC1)n2C)c1ccnc(Nc2cccc(CS(C)(=O)=O)c2)n1 [Example 229, 1-(3,4-Dichloro-phenyl)-cyclopropanecarboxylic acid ({[2-(3-methanesulfonylmethyl-phenylamino)-pyrimidin-4-yl]-methyl-amino}-methyl-1H-benzoimidazol-2-yl)-amide] | – | 100 to 1000 | 1000 to 10000 | – | – |
| CN(c1ccc2c(c1)nc(NC(=O)Cc1ccccc1Cl)n2C)c1ccnc(Nc2ccc(CS(C)(=O)=O)cc2)n1 [Example 230, 2-(2-Chlorophenyl)-N-({[2-(4-methanesulfonylmethyl-phenylamino)-pyrimidin-4-yl]-methyl-amino}-methyl-1H-benzoimidazol-2-yl)-acetamide] | – | < 100 | 1000 to 10000 | – | – |
| (3,5-Bis-trifluoromethyl-phenyl)-N-({[2-(3-methanesulfonylmethyl-phenylamino]-pyrimidin-4-yl]-methyl-amino}-methyl-1H-benzoimidazol-2-yl)-acetamide [Example 161] | – | – | – | + (+ = pIC50 of 5.0-6.0) | ++ (++ = pIC50 of 6.0-7.0) |
| N-({[2-(4-Methanesulfonylmethyl-phenylamino)-pyrimidin-4-yl]-methyl-amino}-methyl-1H-benzoimidazol-2-yl)-dimethyl-butyramide [Example 177] | – | – | – | + (+ = pIC50 of 5.0-6.0) | +++ (+++ = pIC50 of >7.0) |
| Thiophene-2-carboxylic acid ({[2-(3-methanesulfonylmethyl-phenylamino)-pyrimidin-4-yl]-methyl-amino}-methyl-1H-benzoimidazol-2-yl)-amide [Example 167] | – | – | – | + (+ = pIC50 of 5.0-6.0) | +++ (+++ = pIC50 of >7.0) |
